Literature values, collected in US7998710B2, “Process for purifying difructose dianhydride III” (Nippon Beet Sugar Mfg., Co., Ltd., priority 2003, dated 2011).

Experiments:
[1] = test system: absorption of minerals such as Ca; conditions: Patent Document 1
[2] = relative to sucrose

solubility in water compared with that of sucrose [2]: 90-95%
SMILES: OC[C@H]1O[C@@]2(CO[C@]3(CO)O[C@H](CO)[C@@H](O)[C@@H]3O2)[C@@H](O)[C@@H]1O [DFA III, α-D-fructofuranose-β-D-fructofuranose-2′,1:2,3′-dianhydride]
effect of promoting the absorption of minerals such as Ca [1]: promoting the absorption of minerals such as Ca
